Test results: ChEMBL document CHEMBL4483862, “Open-source discovery of chemical leads for next-generation chemoprotective antimalarials” (2018)

Tested on: Plasmodium berghei
Assay: Luciferase/luciferin-expressing antifolate-resistant parasites were used to infect a culture of HepG2 cells that were pre-incubated with compounds. Infected hepatocytes emit light due to the luciferase reaction. Assay results are presented as the percent inhibition of light emission compared to control. […]
Type: functional
Conditions: sporozoite; for IC90: read-out: LUCIFERASE INFECTION ASSAY - IC90
[1] = read-out: LUCIFERASE INFECTION ASSAY - IC50

SMILES | IC90 [µM] | other results
Cc1cc(NC(=O)c2ccc(CN3CCN(C/C=C/c4ccccc4)CC3)cc2)ccc1Cl | > 10 | IC50 (HEPG2TOX_HILL_SLOPE 1.44, HEPG2TOX_R_SQUARED 0.929, PBLUC_HILL_SLOPE 2.64, PBLUC_R_SQUARED 0.29, read-out: LUCIFERASE INFECTION ASSAY - IC50): 4.99 µM
CC(=O)Nc1ccc(-c2cnc3ccc(Cc4ccc(F)cc4)nn23)cc1 | 1.41 | IC50 (PBLUC_HILL_SLOPE 11.9, PBLUC_R_SQUARED 0.515, read-out: LUCIFERASE INFECTION ASSAY - IC50): 1.17 µM
COc1cc(CCC2CCN(CC(=O)c3c(N)n(C)c(=O)n(C)c3=O)CC2)cc(OC)c1 | > 10 | IC50 (PBLUC_HILL_SLOPE 1.27, PBLUC_R_SQUARED 0.409, read-out: LUCIFERASE INFECTION ASSAY - IC50): 5.13 µM
CC(C)(C)C(=O)CSc1nnc(Nc2ccc(Oc3ccccc3)cc2)s1 | > 10 | IC50 (PBLUC_HILL_SLOPE 14.1, PBLUC_R_SQUARED 0.105, read-out: LUCIFERASE INFECTION ASSAY - IC50): 9.89 µM
COc1ccc2nc(C(=O)NNC(=O)c3cc(C)oc3C)ccc2c1 | > 10 | IC50 (HEPG2TOX_HILL_SLOPE 10.5, HEPG2TOX_R_SQUARED 0.205, PBLUC_HILL_SLOPE 2.55, PBLUC_R_SQUARED 0.459, read-out: LUCIFERASE INFECTION ASSAY - IC50): 6.67 µM
O=C(N/N=C/c1ccccc1C(F)(F)F)c1[nH]c2ccccc2c1-c1ccccc1 | 1.07 | IC50 (FFLUC_HILL_SLOPE 16.3, FFLUC_R_SQUARED 0.334, HEPG2TOX_HILL_SLOPE 1.94, HEPG2TOX_R_SQUARED 0.976, PBLUC_HILL_SLOPE 7.87, PBLUC_R_SQUARED 0.839, read-out: LUCIFERASE INFECTION ASSAY - IC50): 0.813 µM
Clc1cc2c(c3ncccc13)OCN(C1CCCC1)C2 | 2.79 | IC50 (FFLUC_HILL_SLOPE 11.1, FFLUC_R_SQUARED 0.223, HEPG2TOX_HILL_SLOPE 2.6, HEPG2TOX_R_SQUARED 0.787, PBLUC_HILL_SLOPE 4.7, PBLUC_R_SQUARED 0.818, read-out: LUCIFERASE INFECTION ASSAY - IC50): 1.75 µM
Cn1c(N)c(C(=O)COC(=O)c2c3c(nc4ccccc24)CCCCC3)c(=O)n(C)c1=O | > 10 | IC50 [1]: 8.99 µM
O=c1[nH]n(-c2ccc(Cl)c(Cl)c2)cc1-c1cccc(Cl)c1 | 5.52 | IC50 (HEPG2TOX_HILL_SLOPE 2.22, HEPG2TOX_R_SQUARED 0.951, PBLUC_HILL_SLOPE 6.3, PBLUC_R_SQUARED 0.659, read-out: LUCIFERASE INFECTION ASSAY - IC50): 3.89 µM
O=C(NCC(c1ccco1)N1CCCC1)c1ccc(Cl)c(S(=O)(=O)N2CCc3ccccc32)c1 (configuration not stated) | > 10 | IC50 (FFLUC_HILL_SLOPE 10.9, FFLUC_R_SQUARED 0.158, HEPG2TOX_HILL_SLOPE 3.24, HEPG2TOX_R_SQUARED 0.613, PBLUC_HILL_SLOPE 5.35, PBLUC_R_SQUARED 0.563, read-out: LUCIFERASE INFECTION ASSAY - IC50): 7.08 µM
C=Cc1c(S(C)(=O)=O)sc(C(N)=O)c1C | > 13.5 | IC50 [1]: > 13.5 µM
COc1ccc(S(=O)(=O)Nc2ccccc2C(=O)NNC(=O)c2ccccc2O)cc1 | 4.69 | IC50 (HEPG2TOX_HILL_SLOPE 4.15, HEPG2TOX_R_SQUARED 0.834, PBLUC_HILL_SLOPE 17, PBLUC_R_SQUARED 0.564, read-out: LUCIFERASE INFECTION ASSAY - IC50): 4.12 µM
CCc1nnc(NC(=O)C2CCCN2S(=O)(=O)c2ccc(OC)cc2)s1 (configuration not stated) | > 8.32 | IC50 [1]: 4.85 µM
CC(=O)Nc1cccc(C(=O)/C=C/c2cn(-c3ccccc3)nc2-c2ccncc2)c1 | > 10 | IC50 [1]: > 10 µM
CC(c1cc2ccccc2o1)N(C)C(=O)Cc1ccccc1F (configuration not stated) | > 10 | IC50 [1]: > 10 µM
Fc1ccc(-c2nc(CSc3nc(NC4CC4)c4ccccc4n3)cs2)cc1 | 4.9 | IC50 (PBLUC_HILL_SLOPE 8, PBLUC_R_SQUARED 0.651, read-out: LUCIFERASE INFECTION ASSAY - IC50): 3.72 µM
CC(C)c1ccc(Nc2ncc3c(n2)CCN(C(=O)Nc2ccc(F)c(Cl)c2)C3)cc1 | > 7.5 | IC50 [1]: > 7.5 µM
Cc1sc2ncnc(N/N=C/c3cn(-c4ccccc4)nc3-c3ccc4c(c3)OCCO4)c2c1C | 3.63 | IC50 (HEPG2TOX_HILL_SLOPE 4.65, HEPG2TOX_R_SQUARED 0.952, PBLUC_HILL_SLOPE 26.5, PBLUC_R_SQUARED 0.19, read-out: LUCIFERASE INFECTION ASSAY - IC50): 3.34 µM
CC(C)C1NC(=O)N(CCCOc2ccc(C(C)(C)C)cc2)C1=O (configuration not stated) | > 10 | IC50 [1]: 9.61 µM
OC1(c2ccc(OC(F)F)cc2)CN(c2ccc(Br)cc2)C2=[N+]1c1ccccc1CC2 (configuration not stated) | > 10 | IC50 (FFLUC_HILL_SLOPE 1.23, FFLUC_R_SQUARED 0.743, PBLUC_HILL_SLOPE 152, PBLUC_R_SQUARED 0.276, read-out: LUCIFERASE INFECTION ASSAY - IC50): 9.94 µM
CN(C)c1ccc(/C=C(\C#N)C(=O)c2ccc(-n3nncc3C34CC5CC(CC(C5)C3)C4)cc2)cc1 | > 10 | IC50 (FFLUC_HILL_SLOPE 2.12, FFLUC_R_SQUARED 0.418, PBLUC_HILL_SLOPE 11.3, PBLUC_R_SQUARED 0.267, read-out: LUCIFERASE INFECTION ASSAY - IC50): > 10 µM

SMILES | IC90 [µM] | other results
N#C/C(=N\Nc1ccccc1Cl)S(=O)(=O)c1ccc(Cl)cc1 | 4.8 | IC50 (HEPG2TOX_HILL_SLOPE 2.02, HEPG2TOX_R_SQUARED 0.971, PBLUC_HILL_SLOPE 7.31, PBLUC_R_SQUARED 0.396, read-out: LUCIFERASE INFECTION ASSAY - IC50): 3.55 µM
Cc1cc(C)cc(Nc2ncnc3ccsc23)c1 | > 10 | IC50 (HEPG2TOX_HILL_SLOPE 6.98, HEPG2TOX_R_SQUARED 0.366, PBLUC_HILL_SLOPE 11.4, PBLUC_R_SQUARED 0.0607, read-out: LUCIFERASE INFECTION ASSAY - IC50): > 10 µM
O=C(NCc1ccccn1)c1ccc2nc3n(c2c1)CCC3 | > 10 | IC50 [1]: > 10 µM
OCCNc1nc(Oc2ccc(-c3ccccc3)cc2)nc2ccccc12 | 1.97 | IC50 (PBLUC_HILL_SLOPE 1.95, PBLUC_R_SQUARED 0.572, read-out: LUCIFERASE INFECTION ASSAY - IC50): 0.64 µM
Cc1ccc(NC(=O)NC(=O)CSc2nccn2Cc2ccccc2)c(C)c1 | > 10 | IC50 (FFLUC_HILL_SLOPE 2.79, FFLUC_R_SQUARED 0.544, read-out: LUCIFERASE INFECTION ASSAY - IC50): > 10 µM
NNc1cc(C(F)(F)F)nc(C(F)(F)F)c1 | 13 | IC50 (PBLUC_HILL_SLOPE 17.4, PBLUC_R_SQUARED 0.11, read-out: LUCIFERASE INFECTION ASSAY - IC50): 11.5 µM
OC(CNCc1ccc(F)cc1)(c1ccccc1)c1ccc(F)cc1 (configuration not stated) | > 9.72 | IC50 (HEPG2TOX_HILL_SLOPE 7.21, HEPG2TOX_R_SQUARED 0.703, read-out: LUCIFERASE INFECTION ASSAY - IC50): > 9.72 µM
O=C(c1cc(-c2ccccc2)[nH]n1)N1CCN(S(=O)(=O)c2ccccc2)CC1 | > 10 | IC50 (PBLUC_HILL_SLOPE 0.361, PBLUC_R_SQUARED 0.34, read-out: LUCIFERASE INFECTION ASSAY - IC50): 1.07 µM
O=C(/C=C/c1ccccc1)Nc1ccc(C23CC4CC(CC(O)(C4)C2)C3)cc1 | 9.39 | IC50 (PBLUC_HILL_SLOPE 1.46, PBLUC_R_SQUARED 0.646, read-out: LUCIFERASE INFECTION ASSAY - IC50): 2.09 µM
Cc1csc(SCC(=O)c2cc(C)n(-c3ccccc3)c2C)n1 | 0.219 | IC50 (PBLUC_HILL_SLOPE 0.985, PBLUC_R_SQUARED 0.172, read-out: LUCIFERASE INFECTION ASSAY - IC50): 0.0235 µM
Cc1ccc(NC(=O)Nc2ccc3nc(-c4ccsc4)nn3c2)cc1 | > 10 | IC50 (PBLUC_HILL_SLOPE 7.59, PBLUC_R_SQUARED 0.413, read-out: LUCIFERASE INFECTION ASSAY - IC50): 8.75 µM
CN1/C(=C/C=C/c2ccc3ccccc3[n+]2C)C=Cc2ccccc21 | 2.78 | IC50 [1]: 2.47 µM
O=C(Nc1cccc([N+](=O)[O-])c1)NC1CCSc2ccc(F)cc21 (configuration not stated) | 4.49 | IC50 [1]: 3.86 µM
Fc1cccc(NC(=S)NN=C2CCCCCC2)c1 | > 11.8 | IC50 (PBLUC_HILL_SLOPE 0.519, PBLUC_R_SQUARED 0.189, read-out: LUCIFERASE INFECTION ASSAY - IC50): > 11.8 µM
Cc1sc2nc(-c3cccnc3)nc(N(C)Cc3cccnc3)c2c1C | 9.64 | IC50 (PBLUC_HILL_SLOPE 7.84, PBLUC_R_SQUARED 0.586, read-out: LUCIFERASE INFECTION ASSAY - IC50): 7.28 µM
Cc1nccnc1-c1ccnn1C(=O)Nc1cc(Cl)cc(Cl)c1 | 0.481 | IC50 (HEPG2TOX_HILL_SLOPE 3.03, HEPG2TOX_R_SQUARED 0.982, PBLUC_HILL_SLOPE 8.5, PBLUC_R_SQUARED 0.804, read-out: LUCIFERASE INFECTION ASSAY - IC50): 0.372 µM
COc1ccc(CN2C(=O)N(CC(C)C)C3(CCN(Cc4c[nH]c5ccccc45)CC3)C2=O)cc1 | > 6.95 | IC50 [1]: 6.77 µM
Cc1cc(N(C)Cc2ccccc2Br)nc(N)n1 | 2.29 | IC50 (HEPG2TOX_HILL_SLOPE 1.99, HEPG2TOX_R_SQUARED 0.929, PBLUC_HILL_SLOPE 3.52, PBLUC_R_SQUARED 0.797, read-out: LUCIFERASE INFECTION ASSAY - IC50): 1.23 µM
CCN(CC)S(=O)(=O)c1ccc(N/N=C2/C=CC(=O)c3ncccc32)cc1 | > 10 | IC50 [1]: > 10 µM
CN1CCN(c2ccc(-c3cn4c(-c5ccc6c(c5)OCO6)cnc4cn3)cn2)CC1 | > 7.96 | IC50 (PBLUC_HILL_SLOPE 2.2, PBLUC_R_SQUARED 0.54, read-out: LUCIFERASE INFECTION ASSAY - IC50): 6.26 µM
